{
  "source": "ChEMBL document CHEMBL4052598",
  "about": "“Discovery of C-Glycosylpyranonaphthoquinones in Streptomyces sp. MBT76 by a Combined NMR-Based Metabolomics and Bioinformatics Workflow” (2017)",
  "type_in_all_cases": "functional",
  "key": {"Staphylococcus aureus": {"tested_on": "Staphylococcus aureus", "assay": "Antimicrobial activity against Staphylococcus aureus CECT976 assessed as growth inhibition zone after 18 hrs by disc diffusion method"}, "Bacillus subtilis": {"tested_on": "Bacillus subtilis", "assay": "Antimicrobial activity against Bacillus subtilis subsp. subtilis str. 168 assessed as growth inhibition zone after 18 hrs by disc diffusion method"}, "Pseudomonas aeruginosa": {"tested_on": "Pseudomonas aeruginosa", "assay": "Antimicrobial activity against Pseudomonas aeruginosa PAO1 assessed as growth inhibition zone after 18 hrs by disc diffusion method"}, "Escherichia coli": {"tested_on": "Escherichia coli", "assay": "Antimicrobial activity against Escherichia coli JM109 assessed as growth inhibition zone after 18 hrs by disc diffusion method"}},
  "note": "Calls of active or inactive are those of the source. The rule behind the calls is not given here.",
  "data": [
    {"smiles": "CN[C@H]1CC[C@H](c2ccc(O)c3c2C(=O)C24OC2([C@@H](C)O[C@@H]2CC(=O)O[C@@H]24)[C@H]3O)O[C@@H]1C", "note": "(stereo partly specified)", "values": [
      {"measurement": "inhibition", "setting": "Staphylococcus aureus", "result": "Active"},
      {"measurement": "inhibition", "setting": "Bacillus subtilis", "result": "Active"},
      {"measurement": "inhibition", "setting": "Pseudomonas aeruginosa", "result": "inactive"},
      {"measurement": "inhibition", "setting": "Escherichia coli", "result": "inactive"}
    ]},
    {"smiles": "CN[C@H]1CC[C@H](c2ccc(O)c3c2C(=O)C24OC2([C@@H](C)O[C@H](CC(=O)O)[C@@H]4O)[C@H]3O)O[C@@H]1C", "note": "(stereo partly specified)", "values": [
      {"measurement": "inhibition", "setting": "Staphylococcus aureus", "result": "Active"},
      {"measurement": "inhibition", "setting": "Bacillus subtilis", "result": "Active"},
      {"measurement": "inhibition", "setting": "Pseudomonas aeruginosa", "result": "inactive"},
      {"measurement": "inhibition", "setting": "Escherichia coli", "result": "inactive"}
    ]},
    {"smiles": "CC1(C)S[C@@H]2[C@H](NC(=O)[C@H](N)c3ccccc3)C(=O)N2[C@H]1C(=O)O", "note": "[AMPICILLIN]", "values": [
      {"measurement": "inhibition zone (IZ)", "setting": "Staphylococcus aureus", "result": 10, "unit": "mm"},
      {"measurement": "inhibition zone (IZ)", "setting": "Bacillus subtilis", "result": 23, "unit": "mm"},
      {"measurement": "inhibition zone (IZ)", "setting": "Pseudomonas aeruginosa", "result": 7, "unit": "mm"},
      {"measurement": "inhibition zone (IZ)", "setting": "Escherichia coli", "result": 20, "unit": "mm"}
    ]},
    {"smiles": "CN[C@@H]1[C@@H](O[C@H]2O[C@H](CO)[C@@H](N)[C@H](O)[C@H]2O)OC2C[C@@H](N)[C@@H](O[C@H]3[C@H](O)[C@@H](O)[C@H](N)C[C@@H]3N)OC2[C@@H]1O", "note": "(stereo partly specified) [APRAMYCIN]", "values": [
      {"measurement": "inhibition zone (IZ)", "setting": "Staphylococcus aureus", "result": 7, "unit": "mm"},
      {"measurement": "inhibition zone (IZ)", "setting": "Bacillus subtilis", "result": 10, "unit": "mm"},
      {"measurement": "inhibition zone (IZ)", "setting": "Pseudomonas aeruginosa", "result": 15, "unit": "mm"},
      {"measurement": "inhibition zone (IZ)", "setting": "Escherichia coli", "result": 7, "unit": "mm"}
    ]}
  ]
}
